Experimental data taken from patent US20110124523A1, “High Throughput Method for Detecting Apoptosis of Embryonic Stages of Metazoan Helminthic Parasites” (INSTITUTE OF LIFE SCIENCES, priority 2009, published 2011).
Values joined by “and” are separate entries in the source; they are usually repeats but may differ in a detail not shown here. Equal entries are not always repeated.

System: embryonic stages of S. digitata
Test: Intra cellular cleavage of caspase substrate PARP, anti cleaved PARP-PE staining
Format: cell-based, Setaria digitata
Conditions: 24 hr
Description: Adult female filarial worms Setaria digitata were collected from the peritoneum of cattle, slaughtered at a nearby abattoir in sterile Hanks Balanced Salt Solution (HBSS) medium (Sigma H 2387-1L) and transported to the laboratory in a sterile container. The medium containing 1% glucose (Sigma G 7528), Penicillin 100 units/ml, Streptomycin 100 μg/ml (Sigma P 4333). And Amphotericin-B 0.25 μg/ml (Sigma A 2942) was buffered with NaHCO3 (Sigma S 5761). About 5 to 7 worms were taken in a petridish, washed three times in medium, dissected into small pieces in 10 ml of medium under sterile conditions and incubated at 37° C. for 30 minutes to allow the release of embryonic stages (eggs and microfilariae) into the medium. The embryonic stages were harvested into sterile 15 ml. centrifuge tubes and washed three times by centrifuging at 300 g for 10 minutes each with medium and the final pellet was suspended in 1 ml. of RPMI-1640 medium (Sigma R 8005) supplemented with 10% FBS (Sigma F 2442) The number of embryonic stages of S. digitata in the above preparation were counted using light microscope, and the suspension was taken in RPMI-1640 medium containing 10% FBS at 1×10^5 embryonic stages/ml. One ml. each was dispensed into individual wells of a 24 well tissue culture plate. One set of wells was taken as untreated control containing only medium with 10% FBS. […] Motility of the Mf was scored under an inverted microscope. After appropriate treatment and incubation, each set of the cultured embryonic stages of S. digitata were harvested from the 24 well tissue culture plate separately in 15 ml. sterile centrifuge tubes, washed with PBS twice and stained as per requirement following manufacturer's instructions as described below. This was followed by two times washing with PBS and final suspension of the stained embryonic stages was taken in 0.5 ml of sheath fluid (BD Biosciences 342003) before their acquisition in the flow cytometer (BD FACS Calibur, Becten and Dickinson, USA). Analysis was performed on 10,000-acquired events depicted as Dot Plots and Histogram Plots using Cellquest Pro soft ware. All plots were representative of at least 3 experiments. The distinctly clustered populations obtained consistently in the Dot plots for the intra uterine embryonic stages of S. digitata (FIG. 1 a) were gated for Mfs (R-1) and eggs (R-2 and R-3) and analyzed for different assays for apoptosis as described below. After in vitro culture for 24 hours with apoptosis inducing reagents the embryonic stages were harvested in 15 ml. sterile centrifuge tubes and fixed for 60 minutes at 0° C. in 1% paraformaldehyde (Sigma P 6148) in PBS. The suspension was washed first with PBS and then with 1× permeabilisation buffer (eBioscience 00-8333-56) and finally resuspended in 100 μl of 1× permeabilisation buffer at 1×10^5 embryonic stages per ml. This suspension was then incubated for 45 minutes with 20 μl of anti cleaved PARP-PE (BD Biosciences 552933). This was followed by washing with PBS twice and analysis by Flow cytometer.

SMILES	GMI (Geometric Mean Intensity) of Fluorescence, PARP Cleavage (Eggs, 10 μM)	GMI (Geometric Mean Intensity) of Fluorescence, PARP Cleavage (Microfilariae, 10 μM)	GMI (Geometric Mean Intensity) of Fluorescence, PARP Cleavage (Eggs, 1 μM)	GMI (Geometric Mean Intensity) of Fluorescence, PARP Cleavage (Microfilariae, 1 μM)
OO [H2O2]	70.72 and 75.32 and 78.52	8.39 and 7.99 and 8.02		
CN[C@@H]1C[C@H]2O[C@@](C)([C@@H]1OC)n1c3ccccc3c3c4c(c5c6ccccc6n2c5c31)C(=O)NC4 [Staurosporine]			63.95 and 66.56 and 70.27	6.57 and 6.21 and 5.49
CC1=CC(=O)c2c(O)cccc2C1=O [Plumbagin]	102.15 and 109.36 and 110.25	10.01 and 11.32 and 9.67		
